Data reported in patent US5650173A, “Preparation of biodegradable microparticles containing a biologically active agent” (Alkermes Controlled Therapeutics Inc. II, priority 1996, dated 1997).
Entries after “also recorded” stand apart in the source; their conditions may differ.

Legend:
[1] = In Vitro Dissolution of norethindrone (NET) microparticles; type: physicochemical; conditions: ethyl acetate alone as solvent; b93: extreme ethyl acetate contents in quench; quench volume varied
[2] = Solubility of risperidone in receiving medium for in vitro dissolution; conditions: 50 mm tris buffer, pH 7.4, aqueous buffer
Description: Real time and accelerated methodologies were used. The equipment consisted of a Hanson research 6-cell USP paddle (Method II) dissolution apparatus interfaced with a spectrophotometer and data station. Receiving media were continuously recirculated from each cell to flow cells inside the spectrophotometer. The absorbance of the receiving media was monitored at 236 nm for quantification of risperidone.
The real time model measured the release rates of microparticles into a receiving medium consisting of 50 mM tris buffer at pH 7.4 at 37° C. […] The amount of risperidone was kept below 20% of saturation to provide infinite sink conditions.

| SMILES | in vitro release rate from microparticles [1] | solubility [2] [µg/mL] |
| --- | --- | --- |
| C#C[C@]1(O)CC[C@H]2[C@@H]3CCC4=CC(=O)CC[C@@H]4[C@H]3CC[C@@]21C [NET, norethindrone] | Higher than normal release rates; also recorded: quicker release; also recorded: varies slightly |  |
| Cc1nc2n(c(=O)c1CCN1CCC(c3noc4cc(F)ccc34)CC1)CCCC2 [Risperidone, risperidone] |  | ≥ 500 |
